Measured values taken from patent publication US20030078211A1, “Compositions and methods for inhibiting bone resorption” (Merck & Co., Inc., priority 1998, published 2003).
*: point of attachment. Cbz = O=C(OCc1ccccc1)*; CH2F = FC*

Key:
[1] = system: 34 kDa Mst kinase fragment; assay: In-gel kinase assay of lysates of treated osteoclast-like cells; type: cell-based, mice; details: for activation of a 34 kDa Kinase: FIG. 3; for activation of the 34 kDa Mst Kinase fragment: FIG. 2
Protocol: (§1) Murine co-cultures of osteoblasts and marrow cells are prepared using the methods of Wesolowski, et al., Exp Cell Res, (1995), 219, pp. 679-686, which is incorporated by reference herein in its entirety. Bone marrow cells are harvested from 6-week-old male Balb/C mice by flushing marrow spaces of freshly isolated long bones (tibiae and femora) with α-MEM (minimal essential media) containing penicillin/streptomycin (100 I.U./ml of each and 20 mM Hepes buffer). The bone marrow cells are suspended in α-MEM and the cells are filtered through an approximately 70 μm cell strainer. The filtrate is centrifuged at about 300×g for about 7 minutes. The resulting pellet is resuspended in α-MEM supplemented with fetal calf serum (10% v/v) and 10 nM 1, 25-(OH)2 vitamin D3. These bone marrow isolates are added to sub-confluent monolayers of osteoblastic MB 1.8 cells in cell culture plates and cultured for 7 days at 37° C. in the presence of 5% CO2. Culture media is replenished ever other day. Fusion of the osteoclast precursor cells from bone marrow (with each other) to form multinucleated osteoclast-like cells typically occurs after about 7 days. Osteoclast-like cells are enriched by sequential treatment with collagenase (1 mg/mL in phosphate buffered saline) for one hour at 37° C. and EDTA (0.2 g/L in phosphate buffered saline) for 20 min at 37° C. Non-adherent cells are rinsed away by washing with phosphate buffered saline. Osteoclast-like cells which are resistant to the sequential treatments are present at about 95% purity and are maintained in α-MEM supplemented with fetal calf serum (10% v/v), 10 nM 1,25-(OH)2 vitamin D3, macrophage-colony-stimulating factor (5 ng/mL).
(§2) The compounds to be evaluated are prepared as a solution of the desired concentration in α-MEM. Examples of compounds that can be evaluated include nitrogen-containing bisphosphonates such as alendronate monosodium trihydrate, as well as compounds that block the effects of these inhibitors, such as caspase inhibitors such as Z-Val-Ala-Asp-FMK, Z-Asp-Glu-Val-Asp-FMK, and Z-Tyr-Val-Ala-Asp-FMK. Combinations of compounds can also be evaluated. The solutions of the compounds to be evaluated are added to the cultures for a time period of 17-24 hours. No treatment controls (controls not treated with comcpounds) are prepared by adding equivalent volumes of α-MEM to the control dishes.
Cells are then harvested and lysed in a HEPES (N-(2-hydroxyethyl)piperazine-N′-(2-ethansulfonic acid) or Tris buffer containing the following: β-glycerophosphate (50 mM); Na3VO4 (1 mM); NaF (1 mM); Microcystin LR (1 μM); leupeptin (10 μg/ml); aprotinin (10 μg/ml); phenylmethyl sulfonylfluoride (1 mM). Protein concentrations are determined for each lysate and 5-20 μg are loaded into each lane of a SDS-PAGE (sodium dodecyl sulfate-polyacrylamide gel electrophoresis) gel containing Myelin Basic Protein, or another kinase substrate, which has been polymerized into the gel at a concentration between 50-400 μg/ml. Molecular weight standards are also loaded into one or more lanes of the gels. In-gel kinase assays are run according to a standard procedure based on Kameshita and Fujisawa, 1989 (Anal. Biochem. 183:139-143) and of Gotoh et al., 1990 (Eur. J. Biochem. 193: 661-669), both references being incorporated by reference herein in their entirety. The proteins are electrophoresed in the above gels. The gels are then successively soaked in 50 mM HEPES, pH 7.6; 5 mM 2-mercaptoethanol and each of the following (for each wash): (a) 20% isopropanol; (b) no additions; (c) urea (6 M); (d) Urea (3 M); (e) Urea (0.75 M); and Tween 20 (0.05% vol:vol). Kinase reactions are then run by first soaking the gels in 20 mM HEPES, pH 7.6; 20 mM MgCl2; 2 mM DTT and then in the same buffer containing […] ATP (non-radioactive) with ca. 1000 cpm/pmol ^32P-γ-ATP. The gels are then washed six times with 5% trichloroacetic acid and 1% pyrophosphate.

Mst 1 = assay: In-gel kinase assay using myelin basic protein as a substrate, purified osteoclast-like cells (FIG. 4); type: cell-based, mice; details: for effect of caspase inhibitor on activation of Mst 1 by alendronate monosodium trihydrate: 20 μM caspase inhibitor with 30 μM alendronate monosodium trihydrate, FIG. 4 lanes 6-8
Protocol: as §1, with “Osteoclast-like cells which are resistant to the sequential treatments are present at about 95% purity and are maintained in α-MEM supplemented with fetal calf serum (10% v/v), 10 nM 1,25-(OH)2 vitamin D3, macrophage-colony-stimulating factor (5 ng/mL).” left out
as §2, with “No treatment controls (controls not treated with comcpounds) are prepared by adding equivalent volumes of α-MEM to the control dishes.” left out
Cells are then harvested and lysed in a HEPES (N-(2-hydroxyethyl)piperazine-N′-(2-ethansulfonic acid) or Tris buffer containing the following: β-glycerophosphate (50 mM); Na3VO4 (1 mM); NaF (1 mM); Microcystin LR (1 μM); leupeptin (10 μg/ml); aprotinin (10 μg/ml); phenylmethyl sulfonylfluoride (1 mM). Protein concentrations are determined for each lysate and 5-20 μg are loaded into each lane of a SDS-PAGE (sodium dodecyl sulfate-polyacrylamide gel electrophoresis) gel containing Myelin Basic Protein, or another kinase substrate, which has been polymerized into the gel at a concentration between 50-400 μg/ml. […]

[2] = system: Mst (mammalian Sterile-20-like kinase); assay: Bisphosphonate-induced cleavage of Mst in osteoclasts; type: cell-based
osteoclast = assay: Osteoclast cell cultures and bone resorption assays; type: cell-based

Row | Compound | activation of the 34 kDa Mst Kinase fragment ([1]; 30 μM, about 17 hours) | activation of the 34 kDa Mst Kinase fragment ([1]; 100 μM, about 17 hours) | activation of a 34 kDa Kinase ([1]; 100 μM, 17 hours) | activation of a 34 kDa Kinase ([1]; 300 μM, 17 hours) | effect on the inhibitory effect otherwise observed with a bisphosphonate such as alendronate monosodium trihydrate (osteoclast) | effect of caspase inhibitor on activation of Mst 1 by alendronate monosodium trihydrate (Mst 1) | other results
1 | NCCCC(O)(P(=O)(O)O)P(=O)(O)O [alendronate monosodium trihydrate, 4-amino-1-hydroxybutylidene-1,1-bisphosphonic acid monosodium trihydrate] | activation | activation | – | – | – | – | activation of a 34 kDa Kinase ([1]; 10 μM, about 17 hours): activation; activation of the 34 kDa Mst Kinase fragment immunoprecipitated by anti-Mst and anti-Krs antibody cocktail ([1]; 30 μM, FIG. 1 lane 3): activated; activation of a 34 kDa Kinase ([1]; 30 μM, about 17 hours): activation; activation of Mst 1 (Mst 1; 30 μM, osteoclast-like cells, FIG. 4): activation
2 | CC(O)(P(=O)(O)O)P(=O)(O)O [etidronate disodium] | fail to activate | fail to activate | fail to activate | fail to activate | – | – | –
3 | O=P(O)(O)C(Sc1ccc(Cl)cc1)P(=O)(O)O [tiludronate disodium] | fail to activate | fail to activate | fail to activate | fail to activate | – | – | –
4 | Cbz-Val-Ala-Asp-CH2F | – | – | – | – | can block the inhibitory effect | blocked | effect on cleavage of Mst induced by bisphosphonates such as alendronate monosodium trihydrate [2]: prevent the cleavage of Mst; activation of the 34 kDa Kinase by alendronate when coincubated with the caspase inhibitor ([1]; coincubation with alendronate, FIG. 3 lane 8): does not activate
5 | Z-Asp-Glu-Val-Asp-FMK (Cbz-DEVD-CH2F; SMILES CC(C)[C@H](NC(=O)[C@H](CCC(=O)O)NC(=O)[C@H](CC(=O)O)NC(=O)OCc1ccccc1)C(=O)N[C@@H](CC(=O)O)C(=O)CF) | – | – | – | – | can block the inhibitory effect | blocked | –
6 | Z-Tyr-Val-Ala-Asp-FMK (Cbz-YVAD-CH2F; SMILES CC(C)[C@H](NC(=O)[C@H](Cc1ccc(O)cc1)NC(=O)OCc1ccccc1)C(=O)N[C@@H](C)C(=O)N[C@@H](CC(=O)O)C(=O)CF) | – | – | – | – | can block the inhibitory effect | blocked | –
